Experiment [1] concerns rat osteosarcoma (17/2.8) cells. The experiment in a line: Rat osteosarcoma (ROS) cell-based alkaline phosphatase assay. As to conditions: 0.02-200 uM, 2 days; relative to BMP-7 standard. As to the method:
BMP interactions with Type I and Type II receptors can induce alkaline phosphatase activity, a marker for osteoblast activity, in ROS cells. An assay procedure as described earlier (Maliakal, J.C., Asahina, I., Hauschka, P. V., and Sampath, T. K. (1994) Growth factors 11, 227-234) was used to determine the biological activities of TDFRP compounds. In a typical experiment, rat osteosarcoma (17/2.8) cells are plated in 96 well plates (3.0×10^4 cells/well) and incubated overnight at 37 C in 5-6% CO2 incubator. The next day, healthy and confluent cells are treated with increasing concentrations of BMP-7 standard (1-10,000 ng/ml) served as positive control or TDFRP compounds (0.02-200 uM) prepared in medium containing 1% FBS and incubated for 2 days at 37 C in 5-6% CO2 incubator. The cellular content of alkaline phosphatase activity is determined by the method of Reddi and Huggins (Reddi, A. H., and Huggins, C. B (1972) Proc. Natl. Acad. Sci. USA 69, 1601-1605). Enzyme estimations are performed in 96 well plates. Following removal of culture medium, cells are washed with pre-warmed PBS (150 ul) and incubated in 100 ul of pre-warmed 1% Triton X-100 for 30 minutes at 37 C. Plates are centrifuged for 10 minutes at full speed, and recovered samples (15 ul) are assayed for enzyme activity by adding 90 ul p-nitrophenyl phosphate (Sigma) as a substrate in 0.05 M glycine-NaOH buffer, pH 9.3 and incubating for 20 minutes at 37 C. The reaction is stopped by adding 75 ul of 0.2 N NaOH/well and absorbance at 405/490 nm is measured on a Dynatech MR 700 plate reader. Results are expressed as relative activities compared to a BMP-7 standard.

The subject of experiment [2] is Smad1. Kind of experiment: Smad1 nuclear translocation in HK-2 cells (immunofluorescence). As to conditions: 1.3 uM and 33 uM compound. The class given is cell-based, human. As for the experimental part: Phosphorylation and nuclear translocation of Smads occurs following the activation of Type I and Type II receptors and subsequent signal transduction to intracellular Smad targets. Phosphorylation and nuclear translocation of R-Smad in HK-2 cells by TDFRP compounds is assayed by immuno-fluorescent microscopy methods, using anti-phospho Smad 1/5 antibodies according to the procedure of H Aoki, M Fujii, T Imamura, K Yagi, K Takehara, M Kato and K Miyazono. J. of Cell Sci. 114, 1483-1489, 2001) and by Western blot analysis (FIG. 15A-FIG. 15C).
HK2, human proximal tubule cells are incubated in culture medium alone or exposed TDFRP or control compounds for one hour ten minutes at 37 degree C. BMP-7 served as a positive control in the assay. Each well is rinsed with 1 mL prewarmed medium. 1 mL per well of cold Acetone/Methanol mix (1:1) is added and incubated for 2 minutes at room temperature to fix the cells. Wells are washed with 1 mL of cold PBS and blocked with 1 mL blocking buffer (3% BSA, 1% goat serum in PBS) for 7 minutes. Wells are aspirated without disturbing the cells, and 500 uL/well primary antibody is added (anti-phospho-Smad 1) at 0.056 ug/mL concentration in 3% BSA in PBS (no goat serum). Cells are incubated overnight at 4 degrees C. […]

For CYFDDSSNVLCKKYRS [SEQ ID NO 45], the “induction of alkaline phosphatase activity” value in experiment [1] is “did not induce alkaline phosphatase activity”. Besides, in experiment [2], the Smad1 translocation result was “Smad1 Translocation”.

Source of the values: patent publication US8916686B2, “TDF-related compounds and analogs thereof” (Thrasos Innovation, Inc., priority 2004, dated 2014).
